Measurements as given in patent US7205326B2, “Aniline derivatives, their manufacture and use as pharmaceutical agents” (Hoffmann-La Roche Inc., priority 2003, dated 2007).

Key:
HCT116 cells = test: HCT116 cell proliferation MTT assay; format: cell-based; details: HCT-116; HCT116 human colon carcinoma cells, MTT assay after 5 days (120 h) incubation, compound 3 uM to 0.15 nM
Experimental: HCT116 cells (human colon carcinoma cell line) were cultivated in RPMI 1640, 2.5% FCS, 2 mM Glutamine, 100 u/ml Penicillin, 100 ug/ml Streptomycin. For the assay the cells were seeded in 384 well plates, 1000 cells per well, in the same medium
The next day compounds (dissolved 10 mM in DMSO) were added in various concentrations ranging from 3 uM to 0.15 nM. After 5 days the MTT assay was done mainly according to the instructions of the manufacturer (Cell proliferation kit I, MTT, from Roche Molecular Biochemicals). In brief: MTT labeling reagent was added to a final concentration of 0.5 mg/ml, added and incubated for 4 hrs at 37° C., 5% CO2. During this incubation time purple formazan crystals are formed. After addition of the solubilization solution (20% SDS in 0.02 M HCl) the plates were incubated overnight at 37° C., 5% CO2. After careful mixing plates were measured in Victor 2 (scanning multiwell spectrophotometer, Wallac) at 550 nm.
A decrease in number of living cells results in a decrease in the total metabolic activity in the sample. The decrease directly correlates to the amount of purple color resulting from the solubilization of the purple formazan crystals.
Materials: • HCT116 1000 cells in 60 ul per well of 384 well plate (Greiner) • Medium: RPMI 1640, 2.5% FCS, glutamine, pen/strep. • Incubate 1 day at 37° C.
Induction: • Dilution of compound in DMSO: 3 ul 10 mM+27 ul DMSO, dilute 1:3 • Add 2 ul of compound dilution row to 95 ul of medium • Add 10 ul of compound dilution to 60 ul medium in test plate results in 0.3% DMSO per well • Incubate 120 h (5 days) at 37° C., 5% CO2
Analysis: • Add 7 ul MTT ([…]), incubate 4 h at 37° C. • Add 30 ul lysis buffer (20% SDS, 0.04N HCl) per well • Incubate overnight at 37° C.
Measurement: • Victor 2 (scanning multiwell spectrophotometer, Wallac), at 550 nm • Determination of IC50 was done using XL-fit.

| SMILES | melting point | IC50 (HCT116 cells) |
| --- | --- | --- |
| [O-][S+](c1ccc(/C=C/c2nc(CNc3ccc(CCCCn4ccnn4)cc3)co2)cc1)C(F)(F)F (stereo not shown) [Example 33, [4-(4-[1,2,3]Triazol-1-yl-butyl)phenyl]-{2-[(E)-2-(-4-trifluoromethanesulfinyl-phenyl)-vinyl]-oxazol-4-ylmethyl}-amine] | 121 to 124 °C | > 40 nM |
| FC(F)(F)Oc1ccc(C=Cc2nc(CNc3ccc(CCCCn4ccnn4)cc3)co2)cc1 [Example 1, [4-(4-[1,2,3]Triazol-1-yl-butyl)-phenyl]-{2-[2-(4-trifluoromethoxy-phenyl)-vinyl]-oxazol-4-ylmethyl}-amine] | 103 to 105 °C | < 20 nM |
| Fc1cc(Cl)ccc1C=Cc1nc(CNc2ccc(CCCCn3ccnn3)cc2)co1 [Example 35, {2-[2-(4-Chloro-2-fluoro-phenyl)-vinyl]-oxazol-4-ylmethyl}-[4-(4-[1,2,3]triazol-1-yl-butyl)-phenyl]-amine] | – | > 40 nM |
| FC(F)(F)c1ccc(C=Cc2nc(CNc3ccc(CCCCn4ccnn4)cc3)co2)cc1 [Example 2, [4-(4-[1,2,3]Triazol-1-yl-butyl)-phenyl]-{2-[2-(4-trifluoromethyl-phenyl)-vinyl]-oxazol-4-ylmethyl}-amine] | 113 to 115 °C | < 20 nM |
| Clc1ccc(C=Cc2nc(CNc3ccc(CCCCn4ccnn4)cc3)co2)cc1 [Example 5, {2-[2-(4-Chloro-phenyl)-vinyl]-oxazol-4-ylmethyl}-[4-(4-[1,2,3]triazol-1-yl-butyl)-phenyl]-amine] | 120 to 122 °C | < 20 nM |
| FC(F)(F)Sc1ccc(C=Cc2nc(CNc3ccc(CCCCn4ccnn4)cc3)co2)cc1 [Example 8, [4-(4-[1,2,3]Triazol-1-yl-butyl)-phenyl]-{2-[2-(4-trifluoromethylsulfanyl-phenyl)-vinyl]-oxazol-4-ylmethyl}-amine] | 76 to 78 °C | < 20 nM |
| O=C(Nc1ccc(CCCCn2ccnn2)cc1)c1coc(C=Cc2ccc(OC(F)(F)F)cc2)n1 [Example 21, 2-[2-(4-Trifluoromethoxy-phenyl)-vinyl]-oxazole-4-carboxylic acid [4-(4-[1,2,3]triazol-1-yl-butyl)-phenyl]-amide] | – | > 40 nM |
| O=C(Nc1ccc(OCCCn2ccnn2)cc1)c1coc(C=Cc2ccc(C(F)(F)F)cc2)n1 [Example 19, 2-[2-(4-Trifluoromethyl-phenyl)-vinyl]-oxazole-4-carboxylic acid [4-(3-[1,2,3]triazol-1-yl-propoxy)-phenyl]-amide] | – | > 40 nM |
| CN(Cc1coc(C=Cc2ccc(SC(F)(F)F)cc2)n1)c1ccc(CCCCn2ccnn2)cc1 [Example 14, Methyl-[4-(4-[1,2,3]triazol-1-yl-butyl)-phenyl]-{2-[2-(4-trifluoromethylsulfanyl-phenyl)-vinyl]-oxazol-4-ylmethyl}-amine] | – | < 20 nM |
| FC(F)(F)c1cccc(C=Cc2nc(CNc3ccc(CCCCn4ccnn4)cc3)co2)c1 [Example 26, [4-(4-[1,2,3]Triazol-1-yl-butyl)-phenyl]-{2-[2-(3-trifluoromethyl-phenyl)-vinyl]-oxazol-4-ylmethyl}-amine] | – | > 40 nM |
| CN(C(=O)c1coc(C=Cc2ccc(OC(F)(F)F)cc2)n1)c1ccc(CCCCn2ccnn2)cc1 [Example 22, 2-[2-(4-Trifluoromethoxy-phenyl)-vinyl]-oxazole-4-carboxylic acid methyl-[4-(4-[1,2,3]triazol-1-yl-butyl)-phenyl]-amide] | – | > 40 nM |

The next lines start with the values.

| melting point | IC50 (HCT116 cells) | SMILES |
| --- | --- | --- |
| 130 to 131 °C | > 40 nM | C(=Cc1nc(CNc2ccc(CCCCn3ccnn3)cc2)co1)c1ccc2c(c1)OCO2 [Example 6, [2-(2-Benzo[1,3]dioxol-5-yl-vinyl)-oxazol-4-ylmethyl]-[4-(4-[1,2,3]triazol-1-yl-butyl)-phenyl]-amine] |
| 109 to 111 °C | > 40 nM | Fc1ccc(C=Cc2nc(CNc3ccc(CCCCn4ccnn4)cc3)co2)c(C(F)(F)F)c1 [Example 27, {2-[2-(4-Fluoro-2-trifluoromethyl-phenyl)-vinyl]-oxazol-4-ylmethyl}-[4-(4-[1,2,3]triazol-1-yl-butyl)-phenyl]-amine] |
| 91 to 93 °C | > 40 nM | FC(F)(F)Oc1cccc(C=Cc2nc(CNc3ccc(CCCCn4ccnn4)cc3)co2)c1 [Example 28, [4-(4-[1,2,3]Triazol-1-yl-butyl)-phenyl]-{2-[2-(3-trifluoromethoxy-phenyl)-vinyl]-oxazol-4-ylmethyl}-amine] |
| – | < 20 nM | O=C(Nc1ccc(CCCCn2ccnn2)cc1)c1coc(C=Cc2ccc(OC(F)F)cc2)n1 [Example 31, 2-[2-(4-Difluoromethoxy-phenyl)-vinyl]-oxazole-4-carboxylic acid-[4-(4-[1,2,3]triazol-1-yl-butyl)-phenyl]-amide] |
| – | > 40 nM | CN(C(=O)c1coc(C=Cc2ccc(OC(F)F)cc2)n1)c1ccc(CCCCn2ccnn2)cc1 [Example 32, 2-[2-(4-Difluoromethoxy-phenyl)-vinyl]-oxazole-4-carboxylic acid methyl-[4-(4-[1,2,3]-triazol-1-yl-butyl)-phenyl]-amide] |
| 76.8 to 78.8 °C | < 20 nM | Clc1ccc(C=Cc2nc(CNc3ccc(CCCCn4ccnn4)cc3)co2)cc1Cl [Example 25, {2-[2-(3,4-Dichloro-phenyl)-vinyl]-oxazol-4-ylmethyl}-[4-(4-[1,2,3]triazol-1-yl-butyl)-phenyl]-amine] |
| – | 20 to 40 nM | FC(F)(F)c1ccc(C=Cc2nc(CNc3ccc(COCCn4ccnn4)cc3)co2)cc1 [Example 37, [4-(2-[1,2,3]Triazol-1-yl-ethoxymethyl)-phenyl]-{2-[2-(4-trifluoromethyl-phenyl)-vinyl]-oxazol-4-ylmethyl}-amine] |
| – | < 20 nM | FC(F)(F)Oc1ccc(C=Cc2nc(CNc3ccc(COCCn4ccnn4)cc3)co2)cc1 [Example 36, [4-(2-[1,2,3]Triazol-1-yl-ethoxymethyl)-phenyl]-{2-[2-(4-trifluoromethoxy-phenyl)-vinyl]-oxazol-4-ylmethyl}-amine] |
| – | > 40 nM | Clc1ccc(C=Cc2nc(CNc3ccc(OCCCn4ccnn4)cc3)co2)cc1 [Example 18, {2-[2-(4-Chloro-phenyl)-vinyl]-oxazol-4-ylmethyl}-[4-(3-[1,2,3]triazol-1-yl-propoxy)-phenyl]-amine] |
| – | > 40 nM | O=C(Nc1ccc(OCCCn2ccnn2)cc1)c1coc(C=Cc2ccc(OC(F)(F)F)cc2)n1 [Example 20, 2-[2-(4-Trifluoromethoxy-phenyl)-vinyl]-oxazole-4-carboxylic acid [4-(3-[1,2,3]triazol-1-yl-propoxy)-phenyl]-amide] |
| – | < 20 nM | Fc1ccc(C=Cc2nc(CNc3ccc(CCCCn4ccnn4)cc3)co2)c(F)c1 [Example 34, {2-[2-(2,4-Difluoro-phenyl)-vinyl]-oxazol-4-ylmethyl}-[4-(4-[1,2,3]triazol-1-yl-butyl)-phenyl]-amine] |
| – | > 40 nM | CN(Cc1coc(C=Cc2ccc3c(c2)OCO3)n1)c1ccc(CCCCn2ccnn2)cc1 [Example 13, [2-(2-Benzo[1,3]dioxol-5-yl-vinyl)-oxazol-4-ylmethyl]-methyl-[4-(4-[1,2,3]triazol-1-yl-butyl)-phenyl]-amine] |
| – | > 40 nM | CN(C(=O)c1coc(C=Cc2ccc(OC(F)(F)F)cc2)n1)c1ccc(OCCCn2ccnn2)cc1 [Example 23, 2-[2-(4-Trifluoromethoxy-phenyl)-vinyl]-oxazole-4-carboxylic acid methyl-[4-(3-[1,2,3]triazol-1-yl-propoxy)-phenyl]-amide] |
| – | > 40 nM | CN(Cc1coc(C=Cc2ccc(Cl)cc2)n1)c1ccc(CCCCn2ccnn2)cc1 [Example 15, {2-[2-(4-Chloro-phenyl)-vinyl]-oxazol-4-ylmethyl}-methyl-[4-(4-[1,2,3]triazol-1-yl-butyl)-phenyl]-amine] |
| – | < 20 nM | O=C(Nc1ccc(CCCCn2ccnn2)cc1)c1coc(C=Cc2ccc3c(c2)OC(F)(F)O3)n1 [Example 29, 2-[2-(2,2-Difluoro-benzo [1,3]dioxol-5-yl)-vinyl]-oxazole-4-carboxylic acid [4-(4-[1,2,3]triazol-1-yl-butyl)-phenyl]-amide] |
| – | > 40 nM | FC(F)(F)Sc1ccc(C=Cc2nc(CNc3ccc(OCCCn4ccnn4)cc3)co2)cc1 [Example 17, [4-(3-[1,2,3]Triazol-1-yl-propoxy)-phenyl]-{2-[2-(4-trifluoromethylsulfanyl-phenyl)-vinyl]-oxazol-4-ylmethyl}-amine] |
| – | > 40 nM | FC(F)(F)Oc1ccc(C=Cc2nc(CNc3ccc(OCCCn4ccnn4)cc3)co2)cc1 [Example 16, [4-(3-[1,2,3]Triazol-1-yl-propoxy)-phenyl]-{2-[2-(4-trifluoromethoxy-phenyl)-vinyl]-oxazol-4-ylmethyl}-amine] |
